Results on 29 compounds are retold here after ChEMBL document CHEMBL1122495, “Ultra-short-acting beta-adrenergic receptor blocking agents. 3. Ethylenediamine derivatives of (aryloxy)propanolamines having esters on the aryl function” (J Med Chem, 1983).

Molecules are shown by their SMILES.

The first test is filed under the species Cavia porcellus. Description: No blockade was observed at 10 e-6 M in guinea pig right atria (In vitro). The format is functional. Conditions: read-out: pA2 (converted).
In the case of `COC(=O)c1ccc(OCC(O)CNCCN2CCCC2)cc1` (configuration not stated), the Kb was above 1000 nM.
Still for that read-out and setting: next, `COC(=O)c1ccc(OCC(O)CNCCN2CCCCC2)cc1` (configuration not stated): above 1000 nM; `COC(=O)c1ccc(OCC(O)CNCCN2CCOCC2)cc1` (configuration not stated): above 1000 nM.

The species named for another test is Cavia porcellus. Description: Inhibition of isoproterenol-induced responses in guinea pig trachea. The test is classed as functional. Conditions: read-out: pA2 (converted).
Consider `COC(=O)c1ccccc1OCC(O)CNCCNS(=O)(=O)N(C)C` (configuration not stated), for which the Kb was 50.1 nM.
With `CCOC(=O)NCC(C)(C)NCC(O)COc1ccccc1C(=O)OC` (configuration not stated), the Kb was 6.31 nM.
Take `COC(=O)c1ccccc1OCC(O)CNC(C)C` (configuration not stated): the Kb was 12.6 nM.
On the same count and under the same terms, next, `CCOC(=O)c1ccccc1OCC(O)CNC(C)(C)CNC(N)=O` (configuration not stated): 0.501 nM; `COC(=O)/C=C/c1ccccc1OCC(O)CNCCNC(=O)C(C)C` (configuration not stated): 0.794 nM.
Take `COC(=O)c1ccccc1OCC(O)CNC(C)(C)CNC(N)=O` (configuration not stated): the Kb is 3.16 nM.
For `COC(=O)c1ccccc1OCC(O)CNCCNS(=O)(=O)c1ccc(C)cc1` (configuration not stated), the Kb is 79.4 nM.
`Cc1ccccc1OCC(O)CNC(C)C` (configuration not stated): the Kb is 6.31 nM.
On to `COC(=O)c1ccccc1OCC(O)CNCCNc1ccc([N+](=O)[O-])cn1` (configuration not stated), for which the Kb was 79.4 nM.
As for `COC(=O)c1ccccc1OCC(O)CNC(C)(C)CNC(=O)N1CCOCC1` (configuration not stated), the Kb was 1 nM.
Consider `COC(=O)c1ccccc1OCC(O)CNC(C)(C)CNS(=O)(=O)c1ccccc1` (configuration not stated), for which the Kb was 1.58 nM.
On the same count and under the same terms, next, `COC(=O)CCc1ccccc1OCC(O)CNCCNC(=O)C(C)C` (configuration not stated): 20 nM.
With `CCOC(=O)c1ccccc1OCC(O)CNCCNC(=O)C(C)C` (configuration not stated), the Kb is 20 nM.
Still for that read-out and setting: next, `COC(=O)c1ccc(OCC(O)CNC(C)C)cc1` (configuration not stated): 3160 nM; `COC(=O)c1ccccc1OCC(O)CNCCNC(=O)Cc1ccccc1` (configuration not stated): 20 nM.
Regarding `COC(=O)c1ccccc1OCC(O)CNCCNC(=O)C(C)C` (configuration not stated), the Kb is 31.6 nM.
For `COC(=O)c1ccccc1OCC(O)CNCCc1ccc(OC)c(OC)c1` (configuration not stated), the Kb was 79.4 nM.
On the same count and under the same terms, next, `COC(=O)c1ccccc1OCC(O)CNCCNC(=O)Nc1ccccc1` (configuration not stated): 200 nM.
Consider `COC(=O)c1ccccc1OCC(O)CNCCNC(C)=O` (configuration not stated), for which the Kb was 100 nM.
Regarding `Cc1ccccc1OCC(O)CNCCNC(=O)C(C)C` (configuration not stated), the Kb is 20 nM.

The species entered for another test is Cavia porcellus. Description: Negative log concentration effecting 50% blockade of isoproterenol-induced rate responses in vitro in guinea pig right atria. The format is functional. Conditions: read-out: pA2 (converted).
As for `COC(=O)c1ccccc1OCC(O)CNCCNS(=O)(=O)N(C)C` (configuration not stated), the Kb is 31.6 nM.
Consider `CCOC(=O)NCC(C)(C)NCC(O)COc1ccccc1C(=O)OC` (configuration not stated), for which the Kb was 2.51 nM.
`COC(=O)c1ccccc1OCC(O)CNC(C)C` (configuration not stated): the Kb was 5.01 nM.
Still for that read-out and setting: next, `CCOC(=O)N1CCC(=NCC(O)COc2ccccc2C(=O)OC)CC1` (configuration not stated): above 1000 nM; `CCOC(=O)c1ccccc1OCC(O)CNC(C)(C)CNC(N)=O` (configuration not stated): 0.126 nM.
With `COC(=O)/C=C/c1ccccc1OCC(O)CNCCNC(=O)C(C)C` (configuration not stated), the Kb is 0.398 nM.
`COC(=O)c1ccccc1OCC(O)CNC(C)(C)CNC(N)=O` (configuration not stated): the Kb is 1.26 nM.
As for `COC(=O)c1ccccc1OCC(O)CNCCNS(=O)(=O)c1ccc(C)cc1` (configuration not stated), the Kb was 158 nM.
As to `Cc1ccccc1OCC(O)CNC(C)C` (configuration not stated), the Kb was 2.51 nM.
Turning to `COC(=O)c1ccccc1OCC(O)CNCCNc1ccc([N+](=O)[O-])cn1` (configuration not stated), the Kb was 31.6 nM.
Consider `COC(=O)c1ccccc1OCC(O)CNC(C)(C)CNC(=O)N1CCOCC1` (configuration not stated), for which the Kb is 0.2 nM.
In the case of `COC(=O)c1ccccc1OCC(O)CN=C1CCN(C=O)CC1` (configuration not stated), the Kb is above 1000 nM.
On to `COC(=O)CCc1ccccc1OCC(O)CNCCNC(=O)C(C)C` (configuration not stated), for which the Kb was 25.1 nM.
In the case of `COC(=O)c1ccccc1OCC(O)CNCCNc1cc(Cl)c2ccccc2c1O` (configuration not stated), the Kb was 631 nM.
For `CCOC(=O)c1ccccc1OCC(O)CNCCNC(=O)C(C)C` (configuration not stated), the Kb is 3.16 nM.
On to `COC(=O)c1ccccc1OCC(O)CNCc1nc2ccccc2[nH]1` (configuration not stated), for which the Kb is 316 nM.
Still for that read-out and setting: next, `COC(=O)c1ccccc1OCC(O)CNCCNC(=O)Cc1ccccc1` (configuration not stated): 5.01 nM.
For `COC(=O)c1ccccc1OCC(O)CNCCNC(=O)C(C)C` (configuration not stated), the Kb was 7.94 nM.
Same read-out and setting: next, `COC(=O)c1ccccc1OCC(O)CNCCNC(=O)Nc1ccccc1` (configuration not stated): 7.94 nM; `COC(=O)c1ccccc1OCC(O)CNCCNC(C)=O` (configuration not stated): 50.1 nM; `Cc1ccccc1OCC(O)CNCCNC(=O)C(C)C` (configuration not stated): 5.01 nM.

Another test relates to Canis lupus familiaris. Description: Time for 80% recovery from 50% blockade levels after 3-h infusions of drug(in vivo).
Settings: not given
Compound `COC(=O)c1ccccc1OCC(O)CNCCNS(=O)(=O)N(C)C` (configuration not stated) registered a Duration of 15 min.
For the compound `CCOC(=O)NCC(C)(C)NCC(O)COc1ccccc1C(=O)OC` (configuration not stated), the Duration is 30 min.
Same read-out and setting: next, `COC(=O)c1ccccc1OCC(O)CNC(C)C` (configuration not stated): 15 min.
On the same count and under the same terms, next, `COC(=O)c1ccccc1OCC(O)CNC(C)(C)CNC(N)=O` (configuration not stated): above 60 min; `COC(=O)c1ccccc1OCC(O)CNCCNc1ccc([N+](=O)[O-])cn1` (configuration not stated): 15 min; `CCOC(=O)c1ccccc1OCC(O)CNCCNC(=O)C(C)C` (configuration not stated): 40 min.
Same read-out and setting: next, `COC(=O)c1ccccc1OCC(O)CNCCNC(=O)Cc1ccccc1` (configuration not stated): 42 min.
`COC(=O)c1ccccc1OCC(O)CNCCNC(=O)C(C)C` (configuration not stated) showed a Duration of 17 min.
Still for that read-out and setting: next, `COC(=O)c1ccccc1OCC(O)CNC(C)(C)C` (configuration not stated): 22 min.
Compound `COC(=O)c1ccccc1OCC(O)CNCCc1ccc(OC)c(OC)c1` (configuration not stated) came in with a Duration of 30 min.
For `COC(=O)c1ccccc1OCC(O)CNCCNC(C)=O` (configuration not stated), the Duration came out at 18 min.

A further test deals with Cavia porcellus. Description: Less than 80% recovery from 50% blockade levels after 3-h infusions of drug(in vivo).
Settings: not given
`CCOC(=O)c1ccccc1OCC(O)CNC(C)(C)CNC(N)=O` (configuration not stated) had a Duration above 60 min.
In turn, `COC(=O)/C=C/c1ccccc1OCC(O)CNCCNC(=O)C(C)C` (configuration not stated) displayed a Duration above 60 min.
Take `Cc1ccccc1OCC(O)CNC(C)C` (configuration not stated): the Duration is recorded as above 60 min.
Turning to `COC(=O)c1ccccc1OCC(O)CNC(C)(C)CNC(=O)N1CCOCC1` (configuration not stated), the Duration was above 60 min.
For `COC(=O)CCc1ccccc1OCC(O)CNCCNC(=O)C(C)C` (configuration not stated), the Duration is above 60 min.
Take `CC(C)NCC(O)COc1cccc2ccccc12` (configuration not stated) [PROPRANOLOL]: the Duration is on record as above 60 min.
Turning to `COC(=O)c1ccccc1OCC(O)CNCCNC(=O)Nc1ccccc1` (configuration not stated), the Duration is recorded as above 60 min.
Compound `Cc1ccccc1OCC(O)CNCCNC(=O)C(C)C` (configuration not stated) returned a Duration above 60 min.

For a further test, the species on record is Cavia porcellus. Description: Cardioselectivity determined (Antilog [pA2 (atria) - pA2 (trachea)] ).
Settings: not given
The compound `CCOC(=O)NCC(C)(C)NCC(O)COc1ccccc1C(=O)OC` (configuration not stated) yielded a Selectivity of 2.5.
In turn, `COC(=O)c1ccccc1OCC(O)CNC(C)C` (configuration not stated) displayed a Selectivity of 2.5.
`CCOC(=O)c1ccccc1OCC(O)CNC(C)(C)CNC(N)=O` (configuration not stated) showed a Selectivity of 4.
The same measure, in the same setting: next, `COC(=O)/C=C/c1ccccc1OCC(O)CNCCNC(=O)C(C)C` (configuration not stated): 2.
Take `COC(=O)c1ccccc1OCC(O)CNC(C)(C)CNC(N)=O` (configuration not stated): the Selectivity is listed as 2.5.
`Cc1ccccc1OCC(O)CNC(C)C` (configuration not stated) yielded a Selectivity of 2.5.
Compound `COC(=O)c1ccccc1OCC(O)CNCCNc1ccc([N+](=O)[O-])cn1` (configuration not stated) had a Selectivity of 2.5.
Consider `COC(=O)c1ccccc1OCC(O)CNC(C)(C)CNC(=O)N1CCOCC1` (configuration not stated), for which the Selectivity came to 5.
The compound `CCOC(=O)c1ccccc1OCC(O)CNCCNC(=O)C(C)C` (configuration not stated) registered a Selectivity of 6.3.
For `COC(=O)c1ccccc1OCC(O)CNCCNC(=O)Cc1ccccc1` (configuration not stated), the Selectivity is recorded as 4.
`COC(=O)c1ccccc1OCC(O)CNCCNC(=O)C(C)C` (configuration not stated) had a Selectivity of 4.
Same read-out and setting: the figure for `COC(=O)c1ccccc1OCC(O)CNCCNC(=O)Nc1ccccc1` (configuration not stated) is 25.1; for `COC(=O)c1ccccc1OCC(O)CNCCNC(C)=O` (configuration not stated) it is 2.
Turning to `Cc1ccccc1OCC(O)CNCCNC(=O)C(C)C` (configuration not stated), the Selectivity is listed as 4.
